Assay results taken from patent US20130253039A1, “COLORECTAL CANCER TREATMENTS AND DIAGNOSTIC IMPROVEMENTS” (priority 2012, published 2013).
Read-outs that look alike come from different tables or passages of the source.

How the values were obtained:
[1] = tested on: hNMNAT-2-shRNA knockdown cells (Caco2); test: Cell-kill assay, hNMNAT-2-shRNA knockdown Caco2 cells; assay type: cell-based; conditions: Homo sapiens, Caco-2; hNMNAT2 overexpressing Caco2 silenced with hNMNAT2-shRNA, puromycin selected
Excerpt: Colorectal cancer Caco2 cells overexpressing hNMNAT2 were transfected with control shRNA plasmid and NMNAT2 small hairpin shRNA plasmid (sc-62693-SH: NMNAT2 shRNA Plasmid (h) is a pool of 3 different shRNA plasmids with a hairpin sequence: […] (SEQ ID NO: 3) and sc-62693-SHA: 5′-GUAGAAAGUGAGACUCAAUtt-3′ (SEQ ID NO: 4) and 5′-AUUGAGUCUCACUUUCUACtt-3′ (SEQ ID NO: 5); sc-62693-SHB: 5′-CCUUAGGAAUAGCAUUGUAtt-3′ (SEQ ID NO: 6) and 5′-UACAAUGCUAUUCCUAAGGtt-3′ (SEQ ID NO: 7); sc-62693-SHC: 5′-GCUCUUUCCCUCAACCUUAtt-3′ (SEQ ID NO: 8) and 5′-UAAGGUUGAGGGAAAGAGCtt-3′ (SEQ ID NO: 9). Transfection was conducted for 8 h as per manufacturer's instructions (Santa Cruz Biotechnology, Inc., Santa Cruz, Calif.). Puromycin resistant clones were selected and knockdown of hNMNAT2 was confirmed by Western blot analyses.

HCT15 = test: Cell-kill assay (dye-based cell proliferation), HCT15; conditions: Homo sapiens, HCT-15; free tiazofurin, 72 h
Description: (§1) Human colorectal cancer cell lines HCT15, HCT116, HT29, HCC2998, and Caco2 were obtained from the National Cancer Institute, Bethesda, Md., USA, maintained in 5% CO2 at 3TC in minimum essential media containing 2.3 μM folic acid (MEM, Life Technologies, Inc., Grand Island, N.Y.) supplemented with 1% penicillin, streptomycin, amphotericin B (Invitrogen, Carlsbad, Calif.), and 10% fetal bovine serum (FBS) for all cell lines except Caco2, which required 20% FBS for optimal growth. Caco2 and HT29 cells were adapted to grow in a low-folate (LF) condition by step-wise reduction of the folate concentration in the medium and finally were stably adapted to grow in folate-free MEM supplemented with 20% and 10% FBS, respectively. The complete LF medium with 20% FBS for Caco2 cells contained 18 nM 5-methyltetrahydrofolate and the LF medium with 10% FBS for HT29 cells contained 9 nM 5-methyltetrahydrofolate. The cells were cultured in low 5-methyltetrahydrofolate conditioned medium for at least 20 generations before they were used in the experiments to promote full expression of folate receptors, and logarithmically growing cells were utilized for all studies.

IMPDH = target: T1, IMPDH (Homo sapiens, UniProt P12268); test: IMPDH activity in Caco2 cell lines after tiazofurin treatment; assay type: cell-based; conditions: 4 h
T1 construct: endogenous in cells; host or cells: Caco2 (wild-type and hNMNAT2-transfected)
T1 sequence (P12268 2-514): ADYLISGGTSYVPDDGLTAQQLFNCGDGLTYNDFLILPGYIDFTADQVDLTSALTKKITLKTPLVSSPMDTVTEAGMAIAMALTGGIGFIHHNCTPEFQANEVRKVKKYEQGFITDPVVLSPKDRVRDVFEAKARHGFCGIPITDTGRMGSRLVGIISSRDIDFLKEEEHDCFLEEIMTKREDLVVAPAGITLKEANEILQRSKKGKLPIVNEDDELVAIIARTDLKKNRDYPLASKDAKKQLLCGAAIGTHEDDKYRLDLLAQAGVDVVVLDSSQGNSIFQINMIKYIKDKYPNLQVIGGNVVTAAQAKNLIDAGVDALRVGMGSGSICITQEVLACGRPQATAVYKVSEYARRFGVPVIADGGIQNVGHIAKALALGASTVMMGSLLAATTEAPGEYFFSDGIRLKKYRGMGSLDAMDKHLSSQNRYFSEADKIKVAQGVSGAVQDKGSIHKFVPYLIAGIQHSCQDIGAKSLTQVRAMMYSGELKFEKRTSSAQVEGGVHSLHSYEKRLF
Description: Panel A, Cells were Processed and NAD levels were determined in the cytoplasmic extracts as described in the Methods section, below. […] Triplicate flasks were set-up with each cell line and incubated with saline or tiazofurin (100-300 μM) for 4 h at 3TC. Cells were processed as described in the Methods section below. Basal IMPDH activity in saline treated control was 1.85 […] of XMP synthesized/mg protein/min; Panel D, NMNAT enzyme activity in wild-type and hNMNAT2 transfected Caco2 cell lines. The y-axis of the bar graph indicates the NMNAT activity in unit/mg of protein; Panel E, hNMNAT2 expression in cytoplasm, nucleus, and mitochondria. Cytoplasmic, nuclear, and mitochondrial proteins were isolated as detailed in the Methods section below and expression of hNMNAT2 protein was determined by Western blot analysis in wild-type and hNMNAT2 transfected caco2 cell lines; Panel F, silencing of hNMNAT2 expression in hNMNAT2 overexpressing cell line. hNMNAT2 expression in transfected Caco2 cell lines was silenced by shRNA-NMNAT2 and there expression was determined by Western blot analysis; Panel G, the wild-type, hNMNAT2 overexpressing, and hNMNAT2 overexpressing Caco2 cell lines were subjected to cell-kill by tiazofurin. ? […]
Colorectal cancer cells were extracted and IMPDH activity was assayed as described and activity is expressed as nmol/min/mg protein [8]. […]

HT29 = test: Cell-kill assay, wild-type HT29; assay type: cell-based, human; conditions: for EC50: wild-type HT29, free tiazofurin, 72 h, read-out: Cytotoxicity EC50, Wild-type
Description: as §1

HCT116 = test: Cell-kill assay, HCT116; assay type: cell-based; conditions: Homo sapiens, HCT-116; free tiazofurin, 72 h
Description: as §1

TAD concentration = TAD concentration in colorectal cancer cells after tiazofurin treatment (HPLC); assay type: cell-based, human; conditions: 4 h
Description: Panels A, B, D, and E, triplicate flasks were set-up with each cell line, treated with tiazofurin (0, 150 and 300 μM) for Caco2 and (0, 50 and 150 μM) for HT29 for 4 h and the cells were processed as detailed in Methods section below. The y-axis of the bar graph indicate the GTP concentration in nmol per million cells while the x-axis gives the tiazofurin concentration used; Panels C and F, effect of TAD concentration following tiazofurin treatment. Triplicate flasks were set-up with each cell line, treated with tiazofurin Caco2 (300 μM), and HT29 (150 μM) for 4 h and processed as detailed in Methods section below. The y-axis indicates the TAD concentration in nmol per million cells. ? […]
For the determination of GTP and TAD, colorectal cancer cells were treated with concentration of tiazofurin (specified in legends to figures) or with saline for 4 h and cell extracts were prepared as detailed earlier. An aliquot of neutralized extract was injected into Phenomenex Gemini 250×4.6 mm, 5μ C18 110A column (Torrance, Calif.) maintained at 19° C., preequilibrated with buffer A (0.1 M potassium phosphate, pH 6.0) and then subjected to a stepwise gradient of buffer A with 20% acetonitrile, pH 6.0 over 30 min and analyzed on Shimadzu High Performance Liquid Chromatography (Canby, Oreg.). […]

[2] = tested on: hNMNAT2-over-expressed HT29; test: Antitumor activity in athymic mice with subcutaneous hNMNAT2-over-expressed HT29 tumors; assay type: in vivo
Description: (§2) In vivo studies were conducted studies to compare antitumor activity of tiazofurin in athymic mice implanted subcutaneously with wild-type and hNMNAT2-over-expressed HT29 cell lines. Groups of five female athymic mice 6-8 weeks old, weighing 16-18 grams, obtained from Harlan Sprague Dawley, Indianapolis, Ind., were injected with wild-type or hNMNAT2-over-expressed HT29 (2×10^6 cells/mice), and tumors were allowed to establish for 7 days. Mice were then treated intraperitoneally with saline or tiazofurin once-a-day for 10 days (QD10) and tumor volume and weights were monitored twice a week. […] There was a dose-dependent decrease in tumor volume following tiazofurin treatment in mice bearing wild-type HT29 (70% decrease in tumor volume at 200 mg/kg and 50% decrease in tumor volume at 50 mg/kg). […] These studies indicate that hNMNAT2-gene-targeted tiazofurin therapy for colorectal cancer is feasible. Further decreasing the dose of tiazofurin will be possible by targeting FR and/or CEA and encapsulating tiazofurin in folate-tethered nanoparticles. Further targeting would translate to additional lowering of tiazofurin induced side-effects.

[3] = tested on: hNMNAT2 transfected HT29 cell line; test: Cell-kill assay, hNMNAT2 transfected HT29; conditions: Homo sapiens, HT-29, 72 h, read-out: Cytotoxicity EC50, hNMNAT2
Description: (§3) Colorectal cancer cells were transfected with pTracer hNMNAT2 and the control plasmid pTracerEFV5/HisA using the lipofectamine reagent (Invitrogen, Carlsbad, Calif.). Zeocin resistant green fluorescence protein (GFP) expressing clones were further analyzed by Fluorescence-activated cell sorting (Becton Dickinson Immunocytometry Systems, San Jose, Calif.).
(§4) Colorectal cancer cells (1500 cells/0.1 ml) were dispensed into 96-well tissue culture plates and 24 h later treated with serial dilutions of free tiazofurin or nanoparticles containing tiazofurin (for nanoparticle treatment, cells were incubated for 2 h with gentle shaking, aspirated and fresh media was added) and further incubated for 72 h at 3TC. After incubation, 20 μl of 3-(4,5-dimethylthiazol-2-yl)-5-(3-carboxymethoxyphenyl)-2-(4-sulfophenyl)-2H-tetrazolium reagent was added to each well, mixed, plates were further incubated for 2 h and color developed was read at 490 nm using a microplate spectrophotometer (Spectra MAX250, Molecular Devices, Sunnnyvale, Calif.) and cell-kill data were analyzed by Graphpad Prism 4 software (GraphPad Software, San Diego, Calif.).

[4] = tested on: human colorectal carcinoma; conditions: mouse, in vivo; cited from earlier work
[5] = tested on: hNMNAT2 transfected Caco2 cell line; test: Cell-kill assay, hNMNAT2 transfected Caco2; conditions: Homo sapiens, Caco-2, 72 h, read-out: Cytotoxicity EC50, hNMNAT2
Description: as §3, §4

colorectal cancer = conditions: 21 patients, bolus once a day for 5 days; cited from earlier work
Caco2 = test: Cell-kill assay, wild-type Caco2; assay type: cell-based, human
Description: as §1

GTP pools = test: GTP concentration in colorectal cancer cells after tiazofurin treatment (HPLC); assay type: cell-based, human; conditions: 4 h
Description: The y-axis of the bar graph indicate the GTP concentration in nmol per million cells while the x-axis gives the tiazofurin concentration used; Panels C and F, effect of TAD concentration following tiazofurin treatment. Triplicate flasks were set-up with each cell line, treated with tiazofurin Caco2 (300 μM), and HT29 (150 μM) for 4 h and processed as detailed in Methods section below. The y-axis indicates the TAD concentration in nmol per million cells. ? Wild-type (WT), ? hNMNAT2 transfected cell line. • *Denotes statistical significance (P<0.05) NS Denotes not significant
For the determination of GTP and TAD, colorectal cancer cells were treated with concentration of tiazofurin (specified in legends to figures) or with saline for 4 h and cell extracts were prepared as detailed earlier. An aliquot of neutralized extract was injected into Phenomenex Gemini 250×4.6 mm, 5μ C18 110A column (Torrance, Calif.) maintained at 19° C., preequilibrated with buffer A (0.1 M potassium phosphate, pH 6.0) and then subjected to a stepwise gradient of buffer A with 20% acetonitrile, pH 6.0 over 30 min and analyzed on Shimadzu High Performance Liquid Chromatography (Canby, Oreg.). Under these conditions GTP eluted at 10 min separated from other nucleotides.

[6] = dose of 1,100 mg/m^2, patients; cited from earlier work
wild-type HT29 = test: Antitumor activity in athymic mice with subcutaneous wild-type HT29 tumors; assay type: in vivo
Description: as §2

HCC2998 = test: Cell-kill assay, HCC2998; assay type: cell-based; conditions: Homo sapiens, HCC 2998; free tiazofurin, 72 h
Description: as §1

[7] = 50 mg/kg intraperitoneally once-a-day for 10 days
[8] = 200 mg/kg intraperitoneally once-a-day for 10 days

NC(=O)c1csc([C@@H]2O[C@H](CO)[C@@H](O)[C@H]2O)n1 [tiazofurin, 2-R-D-ribofuranosylthiazole-4-carboxamide]
EC50 [1]: 380 µM
EC50 (HCT15): 63.9 µM
EC50 (IMPDH; hNMNAT2 transfected Caco2, tiazofurin 100-300 μM, read-out: EC50 of decrease in IMPDH activity): 250 µM
Effect on IMPDH activity (IMPDH; wild-type Caco2, sub-lethal tiazofurin 100-300 μM): no reduction in IMPDH activity
EC50 (HT29; Homo sapiens, HT-29, 72 h): 125 µM
EC50 (HT29): 130 ± 8 µM
Influence of silencing hNMNAT3 on cell-kill by tiazofurin (HT29; wild-type and hNMNAT2 overexpressing HT29, siRNA-hNMNAT3 24 h): did not influence cell-kill by tiazofurin
Influence of silencing hNMNAT1 on cell-kill by tiazofurin (HT29; wild-type or hNMNAT2-overexpressing HT29, siRNA-hNMNAT1 day 3): had no effect on tiazofurin cell-kill
EC50 (HCT116): 72.6 µM
Fold higher concentration of TAD in hNMNAT2 overexpressing vs wild-type cell line (TAD concentration; Caco2, tiazofurin 300 μM): 2 fold
Fold higher levels of TAD in hNMNAT2-overexpressing vs wild-type cell line (TAD concentration; HT29, tiazofurin 150 μM): 2 fold
Effect on tumor [2, 7]: complete disappearance of tumor
Effect on tumor [2, 8]: complete disappearance of tumor
EC50 [3]: 80 ± 3 µM
Antitumor activity [4]: significant antitumor activity
EC50 [5]: 225 µM
Antitumor activity (colorectal cancer): no significant antitumor activity
EC50 (Caco2; Homo sapiens, Caco-2, 72 h, wild-type Caco2, free tiazofurin, 72 h, read-out: Cytotoxicity EC50, Wild-type): 450 µM
Influence of silencing hNMNAT3 on cell-kill by tiazofurin (Caco2; wild-type and hNMNAT2 overexpressing Caco2, siRNA-hNMNAT3 24 h): no change in the dose of tiazofurin required to provide 50% cell-kill
Influence of silencing hNMNAT1 on cell-kill by tiazofurin (Caco2; wild-type or hNMNAT2 overexpressing Caco2, siRNA-hNMNAT1 day 3): did not have any influence on cell-kill by tiazofurin
Reduction in GTP levels (GTP pools; hNMNAT2-transfected Caco2, 150 μM tiazofurin): 40%
Reduction in GTP levels (GTP pools; hNMNAT2-transfected Caco2, 300 μM tiazofurin): 60%
Reduction in GTP levels (GTP pools; hNMNAT2-transfected HT29, 25 μM tiazofurin): 21%
Reduction in GTP levels (GTP pools; hNMNAT2-transfected HT29, 100 μM tiazofurin): 47%
Reduction in GTP pools (GTP pools; wild-type Caco-2, 150 μM tiazofurin): 29%
Reduction in GTP pools (GTP pools; wild-type Caco-2, 300 μM tiazofurin): 45%
GTP reduction (GTP pools; wild-type HT29, 25 μM tiazofurin): did not result in GTP reduction
GTP reduction (GTP pools; wild-type HT29, 100 μM tiazofurin): 22%
Peak plasma concentration [6]: 240 µM
Decrease in tumor volume (wild-type HT29; [7]): 50%
Decrease in tumor volume (wild-type HT29; [8]): 70%
EC50 (HCC2998): 274 µM
